From patent US20050153932A1, “Controlled muscle relaxation” (priority 2003, published 2005)

Experiments:
[1] = tested on: neuromuscular block in a patient; conditions: endotracheal intubation; cited from earlier work
[2] = tested on: M. adductor pollicis contractions; assay: Vecuronium-induced block of M. adductor pollicis contractions (TOF stimulation) and effect of Org 25969 in anaesthetised Rhesus monkeys; assay type: in vivo, Rhesus monkey; conditions: for 0.50-0.90 TOF ratio interval / 25-75% recovery index / time to 25% recovery of T1 / time to 90% recovery of T1 / time to TOF ratio 0.90: spontaneous recovery
Method: • T1: first twitch: amplitude of the first response to TOF stimulation, expressed as percentage of control T1 (%). • T4/T1 ratio: the ratio of T4 over T1 (within one TOF stimulus) expressed as decimals.
Female Rhesus monkeys were starved overnight and sedated with 10 mg·kg^−1 ketamine i.m., followed by i.v. injection of 25 mg·kg^−1 pentobarbitone sodium and subsequent infusion of 5-10 mg·kg^−1hr^−1. The animals were intubated and ventilated with a mixture of oxygen and nitrous oxide (2:3), using a ventilator. The expired CO2 level was measured using a capnograph. The tidal volume was adjusted to obtain a CO2 level of approximately 4.5%. Oxygen saturation was measured via a probe on the earlobe using a pulse oxymeter. Blood pressure was measured non-invasively with a cuff placed on the tail. The ECG was recorded and heart rate was measured. Rectal temperature was measured and body temperature was kept at 37-38° C. using a heating blanket. The right hand and right arm of the animal were fixed to a frame using surgical tape. The thumb was connected to a force transducer. A pre-load of 200-500 mN was applied. Two needle electrode were placed near the N. ulnaris and the nerve was stimulated with train-of-four pulses (pulse duration: 2 ms, train-frequency: 0.07 Hz). At the end of the experiment, the animals were allowed to recover from anesthesia. Appropriate recovery care was given to all animals. Two groups of monkeys were used to assess the reversal effects of Org 25969 against the neuromuscular blocking agents rocuronium (Esmeron®/Zemuron®) and vecuronium (Norcuron®). In the first group, animals initially received an intravenous bolus injection of a 1×ED90 dose of rocuronium bromide to induce neuromuscular block, followed by spontaneous recovery of the twitches. After complete recovery of the twitches, each group received a second and larger 5×ED90 dose of rocuronium followed by spontaneous recovery in one subgroup, whereas the other subgroup received an intravenous bolus dose of 1150 nmol·kg^−1 Org 25969 as soon as all twitches had disappeared. In the vecuronium groups of animals, the same protocol was used, but rocuronium was replaced by vecuronium. Rocuronium bromide and vecuronium bromide were dissolved in a citric acid/phosphate/mannitol buffer (pH 4.0). Org 25969 was dissolved in saline.

[3] = 5× ED90 vecuronium, spontaneous recovery subgroup

Q: What does the source list for C[N+](C)(C)CCOC(=O)CCC(=O)OCC[N+](C)(C)C [suxamethonium]?
A: duration of action [1]: 5 to 8 min; onset [1]: ~1 min

Q: With CC(=O)O[C@H]1C[C@@H]2CC[C@@H]3[C@H](CC[C@@]4(C)[C@H]3C[C@H]([N+]3(C)CCCCC3)[C@@H]4OC(C)=O)[C@@]2(C)C[C@@H]1N1CCCCC1 [vecuronium, vecuronium bromide] as the compound, how does the onset time ([2]; 1× ED90 vecuronium) read?
A: 4.3 ± 0.6 min

Q: What about the “0.50-0.90 TOF ratio interval” value ([2]; 1× ED90 vecuronium) of the same compound?
A: 4.9 ± 0.5 min

Q: And the 25-75% recovery index ([2]; 1× ED90 vecuronium)?
A: 5.4 ± 0.8 min

Q: And the “time to 25% recovery of T1” value ([2]; 1× ED90 vecuronium)?
A: 8.6 ± 1.0 min

Q: What about the “time to 90% recovery of T1” value ([2]; 1× ED90 vecuronium) of the same compound?
A: 18.1 ± 1.9 min

Q: And the “time to TOF ratio 0.90” value ([2]; 1× ED90 vecuronium)?
A: 17.2 ± 1.6 min

Q: And the block ([2]; 1× ED90 vecuronium, Mean ± SEM, n = 4)?
A: 91.5 ± 1.7%

Q: And the “0.50-0.90 TOF ratio interval” value ([2]; 5× ED90 vecuronium)?
A: 11.8 ± 1.3 min

Q: And the 25-75% recovery index ([2]; 5× ED90 vecuronium)?
A: 9.6 ± 2.0 min

Q: What about the “time to 25% recovery of T1” value ([2]; 5× ED90 vecuronium) of the same compound?
A: 28.6 ± 2.8 min

Q: What about the “time to 90% recovery of T1” value ([2]; 5× ED90 vecuronium) of the same compound?
A: 44.0 ± 4.6 min

Q: And the “time to TOF ratio 0.90” value ([2]; 5× ED90 vecuronium)?
A: 49.0 ± 4.7 min

Q: What about the block [2, 3] of the same compound?
A: 100.0 ± 0.0%

Q: And the onset time [2, 3]?
A: 1.0 ± 0.1 min
